pIC50: −log10 of the molar value.
What was measured:
Human MMP-14 = Human MMP-14 (Homo sapiens, UniProt P50281); test: MMP enzymatic activity, modified fluorescence assay (DNP-substrate); type: biochemical
Description: (§1) IC50 values are measured by an in vitro assay for MMP enzymatic activity. Such an assay is described by Stack, M. S., and Gray, R. D., J. Biol. Chem. 264 (1989) 4277-4281. This assay is based on the determination of MMP enzymatic activity on a dinitrophenol substrate and fluorescence measurement of the substrate after cleaving by MMPs.
(§2) Inhibitors were tested in a modified fluorescence-assay as described by Stack, M. S., and Gray, R. D., J. Biol. Chem. 264 (1989) 4277-4281. Human MMP-1, MMP-2, MMP-3, MMP-9 and MMP-14 are commercially available (e.g. Calbiochem). The pro-enzymes were activated with 1 mM APMA (incubation for 30 min at 37° C.) immediately before testing. Activated enzyme is diluted to 100 ng/ml in incubation buffer (50 mM Tris, 100 mM NaCl, 10 mM CaCl2, pH 7.6). The compounds were dissolved in 100% DMSO. […] DNP-substrate (Bachem M1855, 255 μM) was dissolved in incubation buffer.
(§3) The test tube contains 970 μl incubation buffer, 10 μl inhibitor solution and 10 μl enzyme solution. The reaction was started by adding the 10 μl substrate solution.
(§4) Kinetics of activity were determined using excitation at 280 nm and emission at 346 nm measured on a FluoroMax™ (Spex Industries Inc., Edison, N.J., USA) over 120 sec. DMSO has been used as control instead of inhibitor solution.
(§5) IC50's are defined as the concentration of inhibitor that gives a signal that is 50% of the positive enzyme control.

Human MMP-9 = Human MMP-9 (Homo sapiens, UniProt P14780); test: as above; type: biochemical
Sequence of Human MMP-9 (P14780 107-707 limits assumed): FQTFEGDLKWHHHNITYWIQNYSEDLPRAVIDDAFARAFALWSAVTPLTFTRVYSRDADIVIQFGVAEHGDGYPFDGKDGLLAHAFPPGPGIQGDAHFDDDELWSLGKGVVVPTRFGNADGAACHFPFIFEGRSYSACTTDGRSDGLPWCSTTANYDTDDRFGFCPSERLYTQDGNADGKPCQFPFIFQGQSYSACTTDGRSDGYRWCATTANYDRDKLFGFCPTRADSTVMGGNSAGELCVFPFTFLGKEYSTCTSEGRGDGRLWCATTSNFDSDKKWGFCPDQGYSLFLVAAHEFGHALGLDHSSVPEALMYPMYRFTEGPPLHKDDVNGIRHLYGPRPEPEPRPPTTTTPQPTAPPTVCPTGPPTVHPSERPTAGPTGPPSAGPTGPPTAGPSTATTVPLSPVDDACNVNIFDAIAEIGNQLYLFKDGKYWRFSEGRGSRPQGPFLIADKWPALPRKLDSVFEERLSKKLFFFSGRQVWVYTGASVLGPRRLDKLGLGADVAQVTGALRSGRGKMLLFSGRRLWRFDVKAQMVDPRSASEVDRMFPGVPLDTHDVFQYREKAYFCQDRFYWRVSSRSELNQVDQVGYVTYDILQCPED
Description: as §1, §2, §3, §4, §5

O=C1NC(=O)C(c2ccc(-c3ccccc3)cc2)(N2CCN(c3ccc([N+](=O)[O-])cc3)CC2)C(=O)N1 [Compound I, 5-Biphenyl-4-yl-5-[4-(4-nitro-phenyl)-piperazin-1-yl]pyrimidine-2,4,6-trione] gave a pIC50 (Human MMP-14) of 9.00 and a pIC50 (Human MMP-9) of 6.59.
